Measured values as given in patent US12605382B2, “Pharmaceutical composition for preventing, alleviating, or treating cancer containing 2,6-dichloro-4-(4-(4-hydroxycyclohexylamino)-7H- pyrrolo[2,3-d]pyrimidin-5-yl)phenol as active ingredient” (JBKLAB CO., LTD., priority 2021, dated 2026).

Tests used:
MDA-MB-231 = test: Cell viability assay (WST-8), TNBC cell line; assay type: cell-based, human; conditions: dose dependently
Experimental: An experiment was performed to confirm the growth inhibitory effect of the compound of Example 1, the active ingredient of the pharmaceutical composition of the present invention, on breast cancer cell lines through cell viability assay.
Specifically, the cell viability assay was performed as follows. BT20, a human-derived breast cancer cell line, and MDA-MB-231, a TNBC cell line, were each seeded in 96-well plates at the density of 5×10^3 cells/well and cultured for 24 hours. Then, I-bet 762 and the compound of Example 1 were treated thereto at different concentrations and cultured for 48 hours. At the end of the culture, 100 μl of WST-8 solution was added to each well of the plate, and the absorbance was measured with a microplate reader using a 450 nm optical filter to measure the formazan produced by the reducing factors in living cells.
(§1) FIGS. 4A-4C show the cell viability of MDA-MB-231, MDA-MB-453, and BT-20 after 24 hours of treatment with the compound of Example 1. As shown in FIGS. 4A-4C, it was confirmed that the cell viability was suppressed not only in general breast cancer cell lines, but also in TNBC cell lines dose dependently.

MDA-MB-453 = test: Cell viability, breast cancer cell line; assay type: cell-based; conditions: MDA-MB-453, 24 hours, dose dependently
Experimental: as §1

[1] = tested on: tumor tissues (MDA-MB-231); test: Number of apoptotic bodies in tumor tissues; assay type: in vivo, BALB/c-nude mice; conditions: for number of apoptotic body: sum of five areas at ×400
Experimental: An experiment was performed to confirm the tumor necrosis effect of the compound of Example 1, the active ingredient of the pharmaceutical composition of the present invention, by measuring the number of apoptotic bodies in tumors and H&E staining of the tumor tissues in BALB/c-nude mice injected with cancer cell lines.
Specifically, to measure the number of apoptotic bodies in the tumor tissues of the T4, T5, and T6 groups of Experimental Example 1, five areas where the tumor tissues were growing were randomly selected and the number of apoptotic bodies was measured at ×400 magnification. The sum of the measurements was calculated, expressed as individual values, and statistically compared using GraphPad Prism 5.

Hep3B = test: WST-8 cell viability assay, hepatocellular carcinoma cell line; assay type: cell-based
Experimental: (§2) Specifically, the WST-8 assay to check the cell viability of HepG2 and Hep3B, which are hepatocellular carcinoma cell lines shown in FIGS. 7A-7C and 8A-8C, was performed as follows. HepG2 and Hep3B were each seeded in 96-well plates at the density of 5×10^3 cells/well and cultured for 24 hours. Then, Sorafenib and OPT-0139 were diluted stepwise at a twofold concentration and then treated to the plates at different concentrations, followed by culture for 24, 48, and 72 hours. […] of WST-8 solution was added to each well of the plate, and the absorbance was measured with a microplate reader using a 450 nm optical filter to measure the formazan produced by the reducing factors in living cells.
(§3) Therefore, the number of living cells could be measured by measuring absorbance.

HepG2 = test: as above; assay type: cell-based
Experimental: as §2, §3

[2] = tested on: 4T1 murine triple negative breast cancer cells; test: Tumor size in triple-negative breast cancer allograft mouse model; assay type: in vivo, BALB/c mice; conditions: 10 mg/kg intravenously
Experimental: (§4) 4T1 murine triple negative breast cancer cells (6×10^5 cells) were injected into the hind limbs of 6-week-old immune-competent BALB/c mice. Seven days after injection, after confirming consistent tumor growth, 10 mice from each group were selected and used in subsequent experiments.
(§5) The experimental groups consisted of a control group (no treatment), a radiotherapy group, a group treated with the compound of Example 1, and a group treated with a combination of the compound of Example 1 and radiotherapy. Each treatment was carried out for 31 days after tumor implantation.
(§6) Radiation treatment was performed using electron beams, and a total of 24 Gy was irradiated three times, once every two days for one week (Days 10, 12, and 14) (8 Gy×3). The compound of Example 1 was administered intravenously at a dose of 10 mg/kg once every 2 or 3 days (Days 10, 12, 14, 17, 19, and 21) for a total of 6 times over 2 weeks. On the days when radiation therapy and drug administration were conducted simultaneously, the compound of Example 1 was administered after confirming that the mice had recovered from anesthesia 4 hours after radiation therapy.
On each treatment day, the length and width of the tumor were measured using a vernier caliper, and then the tumor volume (mm^3) was calculated using mathematical formula 1 below. Volume (mm^3)=length (mm)×{width (mm)}^2×0.5 [Mathematical Formula 1]

[3] = tested on: 4T1 murine triple negative breast cancer cells; test: Lung metastasis in triple-negative breast cancer allograft mouse model; assay type: in vivo, BALB/c mice; conditions: 31st day
Experimental: as §4, §5, §6
Mice were prepared in the same manner as in Example 8, and the lungs of the mice were removed on the 31st day after tumor injection, and the results of observing lung metastasis are shown in FIG. 13.

CD8+ T cells = test: Flow cytometric analysis (FACS) of tumor tissue, 4T1 allograft model; assay type: in vivo, BALB/c mice; conditions: 31 days
Experimental: (§7) The tumor tissues from each mouse were subjected to single cell isolation, followed by flow cytometric analysis (FACS) to confirm the immunomodulatory effect.
(§8) Specifically, the spleen and tumor of the mouse were extracted 31 days after tumor cell injection in the same manner as in Example 8. After the tumor tissue was excised, it was mechanically processed by fine chopping using a sterilized razor blade, and then treated with DNase (0.1 mg/ml) and collagenase (1 mg/ml), respectively, and reacted at 36° C. for 30 minutes to obtain a single cell suspension. To analyze infiltrating leukocytes after isolation of single cells from the tumor tissue, […] cells per FACS tube were stained with FITC, PE, PerCP/Cy5.5, and APC fluorescence using CD3 antibody, CD8b antibody, CD4 antibody, CD11b antibody, F4/80 antibody, and CD206 antibody. For each stained sample, the fraction of CD8+ cytotoxic T cells was calculated using BD Bioscience FACSCalibur machines. Analysis of the FACS results was performed using FlowJo software, version 10.

M1 TAM = test: as above; assay type: in vivo, BALB/c mice
Experimental: as §7, §8

M2 TAM = test: as above; assay type: in vivo, BALB/c mice
Experimental: as §7, §8

SK Hep1 = test: Cell viability alone and in combination with sorafenib; assay type: cell-based, Human
Experimental: Human liver cancer cell lines (SK Hep1 and Huh-7) were treated with control (no treatment), 0.1 μM of the compound of Example 1, 1 μM of sorafenib, and 0.1 μM of the compound of Example 1/1 μM of sorafenib, and the cell viability of SK Hep1 and Huh-7 was confirmed.

## Oc1c(Cl)cc(-c2c[nH]c3ncnc(N[C@H]4CC[C@H](O)CC4)c23)cc1Cl [Example 1, (trans)-2,6-dichloro-4-(4-(4-hydroxycyclohexylamino)-7H-pyrrolo[2,3-d]pyrimidin-5-yl)phenol]
MDA-MB-231; MDA-MB-231, 24 hours
  cell viability: suppressed
MDA-MB-231; MDA-MB-231, 48 hours
  cell viability: inhibited the cell viability
MDA-MB-453
  cell viability: suppressed
[1]; T4, T5 and T6 groups, dose dependently
  number of apoptotic bodies compared to NC (Negative Control): higher
[1]; T4: 5 mg/kg once i.v.
  number of apoptotic body: 9.6 ± 4.7
[1]; T5: 10 mg/kg once i.v.
  number of apoptotic body: 9.2 ± 4.6
[1]; T6: 20 mg/kg once i.v.
  number of apoptotic body: 13.6 ± 7.4
Hep3B
  effect on cell viability compared to Sorafenib: remarkable effect compared to Sorafenib
Hep3B; 24, 48 and 72 hours
  cell viability: decreased the cell viability dose and time dependently
HepG2
  effect on cell viability compared to Sorafenib: remarkable effect compared to Sorafenib
HepG2; 24, 48 and 72 hours
  cell viability: decreased the cell viability dose and time dependently
[2]; alone, 6 times over 2 weeks, observed 31 days
  tumor growth compared to control group: significantly delayed the tumor growth
[2]; combined with radiation (8 Gy×3), 6 times
  tumor growth compared to each administration alone: superior inhibitory effect on the tumor growth
[3]; alone, 10 mg/kg intravenously
  lung metastasis compared to control group: significantly reduced metastasis
[3]; combined with radiation (8 Gy×3)
  lung metastases compared to each administration alone: significantly (P<0.05) reduced lung metastases
CD8+ T cells; alone
  proportion of CD8+ T cells in tumor: increased
CD8+ T cells; combined with radiation
  proportion of CD8+ T cells in tumor compared to each administration alone: significantly increased
M1 TAM; alone
  M1 TAM: significantly (P<0.01) increased
M1 TAM; combined with radiation
  M1 TAM: increase
M2 TAM; alone
  M2 TAM: significantly (P<0.01) decreased
M2 TAM; combined with radiation
  M2 TAM: decrease
SK Hep1; 0.1 μM Example 1 combined with 1 μM sorafenib
  cell viability: further inhibited (synergistic effect)
SK Hep1; 0.1 μM alone
  cell viability: suppressed
